# Tests used:
# [1] = test system: adult osteoarthritic rats; experiment: MIA-OA osteoarthritis pain model, hind limb grip force; assay type: in vivo, Male Sprague Dawley rats; conditions: Rattus norvegicus, 480 h, read-out: % Effect; for inhibition in vivo at 1 mg/kg: 1 mg/kg i.p.; for inhibition in vivo at 3 mg/kg: 3 mg/kg i.p.
# Description: This model, the MIA-OA model is well known to those skilled in the art. A general review of various models of pain is found in Joshi and Honore, Expert Opinion in Drug Discovery (2004) 1, pp. 323-334, and in the book ‘Drug Discovery and Evaluation, 2nd edition’ (H. Gerhard Vogel, editor; Springer-Verlag, New York, 2002; pp. 702-706).
# Pain behavior was assessed by measurement of hind limb grip force (GF) in adult osteoarthritic rats. Male Sprague Dawley rats, 325-350 g, were injected in the unilateral knee join with a single intra-articular injection of sodium monoiodoacetate (MIA). All rats were tested at 20 days following MIA injection. A behavioral measure of activity-induced pain was carried out. Measurements of the peak hind limb grip force were conducted by recording the maximum compressive force (CFmax), in grams of force, exerted on a hind limb strain gauge setup, in a commercially available grip force measurement system (Columbus Instruments, Columbus, Ohio).
# During testing, each rat was gently restrained by grasping it around its rib cage and then allowed to grasp the wire mesh frame attached to the strain gauge. The experimenter then moved the animal in a rostral-to-caudal direction until the grip was broken. Each rat was sequentially tested twice at approximately 2-3 min interval to obtain a raw mean grip force (CFmax). This raw mean grip force data was in turn converted to a maximum hindlimb cumulative compressive force (CFmax), as the grams of force/kg of body weight, for each animal.
# For evaluating the compound effects, the hind limb grip force was conducted 20 days following the intra-articular injection of MIA. A group of age-matched naïve (not injected with MIA) animals was added as a comparator to the drug-dosed groups. The vehicle control response for each group of MIA-treated animals was defined as the 0% response (0% effect), whereas the naïve control group was defined as the normal response and as 100% effect. The % effects for each dose group was expressed as % return of response to normalcy, compared to the naïve group. That is, the % effect=(Treatment CFmax−Vehicle CFmax)/Vehicle CFmax]×100). Higher % effect numbers indicate increased relief from the pain in the model, with 100% indicating a return to the level of response seen in normal (non-osteoarthritic) animals. All experiments evaluating drug effects in this model were conducted in a randomized blinded fashion.
# Male Sprague Dawley rats (250-300 g body weight) obtained from Charles River Laboratories (Wilmington, Mass.) were used for all experiments, unless indicated otherwise. The animals were housed in Association for Assessment and Accreditation of Laboratory Animal Care (AAALAC) approved facilities at Abbott Laboratories in a temperature-regulated environment under a controlled 12-h light-dark cycle, with lights on at 6:00 a.m. Food and water were available ad libitum at all times except during testing. All testing was done following procedures outlined in protocols approved by Abbott Laboratories' Institutional Animal Care and Use Committee.
# [2] = ip, hind limb grip force (CFmax) 20 days after intra-articular MIA, % return to normalcy vs naive, mean ± SEM
melting point,SMILES,"inhibition in vivo at 1 mg/kg [1, 2]","inhibition in vivo at 3 mg/kg [1, 2]","inhibition in vivo at 10 mg/kg ([1]; ip, 10 mg/kg i.p., hind limb grip force (CFmax) 20 days after intra-articular MIA, % return to normalcy vs naive, mean ± SEM)","inhibition in vivo at 30 mg/kg ([1]; 30 mg/kg, positive control, hind limb grip force 20 days after MIA)"
127 to 128 °C,"O=c1cccnn1-c1ccc2nc([C@H]3C[C@@H](N4CCCCC4)C3)sc2c1 [Example 1, Cis-2-[2-(3-piperidin-1-ylcyclobutyl)-1,3-benzothiazol-6-yl]pyridazin-3(2H)-one]",51 ± 6%,79 ± 6%,,
,"O=c1cccnn1-c1ccc2nc([C@H]3C[C@H](N4CCCCC4)C3)sc2c1 [Example 2, Trans-2-[2-(3-piperidin-1-ylcyclobutyl)-1,3-benzothiazol-6-yl]pyridazin-3(2H)-one]",,43 ± 13%,,
,"O=C1[C@@H](O)CCN1c1ccc2nc(C3CC(N4CCCCC4)C3)sc2c1 (stereo partly drawn) [Example 3, (S)-3-Hydroxy-1-[2-(3-piperidin-1-yl-cyclobutyl)-benzothiazol-6-yl]-pyrrolidin-2-one]",26 ± 2%,53 ± 5%,,
,"C[C@@H]1CCCN1CCc1cc2cc(-c3ccc(C#N)cc3)ccc2o1 [Example 4, (4-(2-(2-[2(R)-Methyl-1-pyrrolidinyl]ethyl)-1-benzofuran-5-yl)benzonitrile)]",40 ± 4%,56 ± 6%,,
,"CNC(=O)c1ccc(Oc2ccc3c(c2)CCN(C2CCC2)CC3)nc1 [Example 5, (6-(3-Cyclobutyl-2,3,4,5-tetrahydro-1H-benzo[d]azepin-7-yloxy)-N-methyl-nicotinamide), reference compound]",54 ± 5%,74 ± 4%,,
,"CNC(=O)c1cnc(Oc2ccc3c(c2)CCN(C2CCC2)CC3)cn1 [Example 6, (5-(3-cyclobutyl-2,3,4,5-tetrahydro-1H-benzo[d]azepin-7-yloxy)-N-methylpyrazine-2-carboxamide), reference compound]",65 ± 9%,90 ± 17%,,
,"CC(C)N1CCCN(C(=O)C2CCN(c3ccc(C(F)(F)F)nc3)CC2)CC1 [Example 7, (4-isopropyl-1,4-diazepan-1-yl)(1-(6-(trifluoromethyl)pyridin-3-yl)piperidin-4-yl)methanone, reference compound]",51 ± 8%,66 ± 6%,,
,"C[C@H]1CCCN1C[C@H]1C[C@@H]1c1ccc(-n2ncccc2=O)cc1 [Example 8, 2-[4-((1S,2S)-2-{[(2S)-2-methylpyrrolidin-1-yl]methyl}cyclopropyl)phenyl]pyridazin-3(2H)-one]",47 ± 6%,68 ± 4%,82 ± 5%,
,"Cc1ccc(-c2cc(C(F)(F)F)nn2-c2ccc(S(N)(=O)=O)cc2)cc1 [celecoxib, reference compound]",,,,89%

# Source: US9186353B2, “Treatment of osteoarthritis pain” (AbbVie Inc., priority 2009, dated 2015)
